Experimental findings from US20180305332A1, “Bispiperidinyl Derivatives as Liver X Receptor Beta Agonists, Compositions, and Their Use” (Merck Sharp & Dohme Corp., priority 2015, published 2018) are described below.

Test [1] has as its target T1, GST tagged LXRalpha LBD (ligand binding domain) (Homo sapiens, UniProt Q13133).
T1 construct: purchased Invitrogen pv4655
T1 sequence (Q13133 209-447 limits assumed): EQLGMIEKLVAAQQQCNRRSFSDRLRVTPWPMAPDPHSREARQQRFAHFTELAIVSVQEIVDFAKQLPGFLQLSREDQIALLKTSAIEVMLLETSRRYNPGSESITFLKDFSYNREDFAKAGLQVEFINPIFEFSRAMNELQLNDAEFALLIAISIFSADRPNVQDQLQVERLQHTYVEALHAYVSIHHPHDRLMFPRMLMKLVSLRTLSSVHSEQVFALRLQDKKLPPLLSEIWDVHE
The experiment in a line: LanthaScreen TR-FRET Liver X Receptor Coactivator Assay, LXR alpha-LBD. Conditions: relative to reference T0901317; for EC50 / LXR alpha IP (nM): Inflection Point (potency), co-activator recruitment; for EC50: read-out: LXR alpha IP; for Emax: read-out: LXR alpha act @ max dose (%). Format: biochemical. The method in brief:
(§1)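 GST-tagged human LXRα or LXRβ LBD was mixed with test compound, then fluorescein-labelled coactivator peptide and terbium anti-GST antibody added. After room-temperature incubation, TR-FRET was read. Inflection point and Emax expressed relative to reference dual agonist T0901317.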
(TR-FRET usually uses a lanthanide donor and a delayed reading to cut background.)

Test [2] addresses T2, GST tagged LXRbeta LBD (ligand binding domain) (Homo sapiens, UniProt P55055).
T2 construct: purchased Invitrogen pv4658.pps
T2 sequence (P55055 222-460 limits assumed): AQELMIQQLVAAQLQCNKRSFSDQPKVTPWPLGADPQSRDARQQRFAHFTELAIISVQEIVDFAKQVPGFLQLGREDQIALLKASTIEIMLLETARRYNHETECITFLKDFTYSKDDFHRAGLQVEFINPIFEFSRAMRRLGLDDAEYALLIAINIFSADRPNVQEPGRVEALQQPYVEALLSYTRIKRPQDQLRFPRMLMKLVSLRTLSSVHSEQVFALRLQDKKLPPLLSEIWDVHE
As to the kind of experiment: LanthaScreen TR-FRET Liver X Receptor Coactivator Assay, LXR beta-LBD. Conditions: relative to reference T0901317; for EC50: Inflection Point (potency), co-activator recruitment, read-out: LXR beta IP; for Emax: read-out: LXR beta act @ max dose (%). Format: biochemical. The method in brief: as §1

The mark [3] stands for this setting: activity at max dose (efficacy).

As to `CC(C)CC(O)(C(=O)N1CCC(C2CCN(c3ccc(C(=O)N(C)C)c(Cl)c3)CC2)CC1)C(F)(F)F` (centres unmarked) [Example A-90, 2-chloro-4-{1′-[2-hydroxy-4-methyl-2-(trifluoromethyl)pentanoyl]-4,4′-bipiperidin-1-yl}-N,N-dimethylbenzamide], the EC50 worked out at 686 nM in test [1] and 108 nM in test [2]. Further, the “LXR alpha act @ max dose (%)” value in test [1] (setting [3]) is listed as 45%. In test [2] (setting [3]), the “LXR beta act @ max dose (%)” value stood at 70%.
Regarding `CN(C)C(=O)c1ccc(N2CCC(C3CCN(C(=O)C(C)(C)c4cccc(F)c4)CC3)CC2)cc1Cl` [Example A-91, 2-chloro-4-{1′-[2-(3-fluorophenyl)-2-methylpropanoyl]-4,4′-bipiperidin-1-yl}-N,N-dimethylbenzamide], the EC50 in test [1] came to 2090 nM; in test [2] it was 147 nM. Moreover, the figures for the Emax in test [1] (setting [3]) and in test [2] (setting [3]) were 42% and 112%, respectively.
For `Cc1ccc(C(C)(C)C(=O)N2CCC(C3CCN(c4ccc(C(=O)N(C)C)c(Cl)c4)CC3)CC2)cc1` [Example A-92, 2-chloro-N,N-dimethyl-4-{1′-[2-methyl-2-(4-methylphenyl)propanoyl]-4,4′-bipiperidin-1-yl}benzamide], in that order: 2840 nM, 193 nM, 31% and 99%.
For `COc1cccc(C2(C(=O)N3CCC(C4CCN(c5ccc(C(=O)N(C)C)c(Cl)c5)CC4)CC3)CCC2)c1` [Example A-93, 2-chloro-4-(1′-{[1-(3-methoxyphenyl)cyclobutyl]carbonyl}-4,4′-bipiperidin-1-yl)-N,N-dimethylbenzamide], in that order: 2270 nM, 171 nM, 22% and 100%.
For `CN(C)C(=O)c1ccc(N2CCC(C3CCN(C(=O)C4(c5ccccc5Cl)CCCC4)CC3)CC2)cc1Cl` [Example A-94, 2-chloro-4-(1′-{[1-(2-chlorophenyl)cyclopentyl]carbonyl}-4,4′-bipiperidin-1-yl)-N,N-dimethylbenzamide], in that order: 250 nM, 13 nM, 67% and 124%.
As to `CN(C)C(=O)c1ccc(N2CCC(C3CCN(C(=O)C(O)(c4cccc(F)c4)C(F)(F)F)CC3)CC2)cc1Cl` (centres unmarked) [Example A-95, 2-chloro-N,N-dimethyl-4-{1′-[3,3,3-trifluoro-2-(3-fluorophenyl)-2-hydroxypropanoyl]-4,4′-bipiperidin-1-yl}benzamide], the figures for the EC50 in test [1] and in test [2] were 1330 nM and 84 nM, respectively. Also, the Emax in test [1] (setting [3]) came to 38%; in test [2] (setting [3]), 116%.
For `CN(C)C(=O)c1ccc(N2CCC(C3CCN(C(=O)C(O)(c4ccccc4F)C(F)(F)F)CC3)CC2)cc1Cl` (centres unmarked) [Example A-96, 2-chloro-N,N-dimethyl-4-{1′-[3,3,3-trifluoro-2-(2-fluorophenyl)-2-hydroxypropanoyl]-4,4′-bipiperidin-1-yl}benzamide], in that order: 2340 nM, 132 nM, 29% and 107%.
For `COc1ccccc1C(O)(C(=O)N1CCC(C2CCN(c3ccc(C(=O)N(C)C)c(Cl)c3)CC2)CC1)C(F)(F)F` (centres unmarked) [Example A-97, 2-chloro-N,N-dimethyl-4-{1′-[3,3,3-trifluoro-2-hydroxy-2-(2-methoxyphenyl)propanoyl]-4,4′-bipiperidin-1-yl}benzamide], in that order: 2430 nM, 114 nM, 37% and 100%.
On the same counts, the results for `CN(C)C(=O)c1ccc(N2CCC(C3CCN(C(=O)C(c4ccccc4)C(F)(F)F)CC3)CC2)cc1Cl` (centres unmarked) [Example A-98, 2-chloro-N,N-dimethyl-4-[1′-(3,3,3-trifluoro-2-phenylpropanoyl)-4,4′-bipiperidin-1-yl]benzamide] are 4960 nM, 324 nM, 33% and 92%.
For `CN(C)C(=O)c1ccc(N2CCC(C3CCN(S(=O)(=O)c4ccccc4)CC3)CC2)cc1Cl` [Example A-99, 2-chloro-N,N-dimethyl-4-[1′-(phenylsulfonyl)-4,4′-bipiperidin-1-yl]benzamide], the “LXR alpha IP (nM)” value in test [1] is reported as “NO IP”. The Emax in test [1] (setting [3]) worked out at 0%; in test [2] (setting [3]) it was 54%. Further, in test [2], the EC50 came to 496 nM.
`Cc1ccccc1S(=O)(=O)N1CCC(C2CCN(c3ccc(C(=O)N(C)C)c(Cl)c3)CC2)CC1` [Example A-100, 2-chloro-N,N-dimethyl-4-{1′-[(2-methylphenyl)sulfonyl]-4,4′-bipiperidin-1-yl}benzamide]: the values for the EC50 in test [1] and in test [2] were 5770 nM and 140 nM, respectively. Further, the Emax amounted to 48% in test [1] (setting [3]) and 121% in test [2] (setting [3]).
On the same counts, the results for `CN(C)C(=O)c1ccc(N2CCC(C3CCN(S(=O)(=O)c4ccccc4C(F)(F)F)CC3)CC2)cc1Cl` [Example A-101, 2-chloro-N,N-dimethyl-4-(1′-{[2-(trifluoromethyl)phenyl]sulfonyl}-4,4′-bipiperidin-1-yl)benzamide] are 618 nM, 8 nM, 65% and 138%.
On the same counts, the results for `CN(C)C(=O)c1ccc(N2CCC(C3CCN(S(=O)(=O)c4ccccc4C#N)CC3)CC2)cc1Cl` [Example A-102, 2-chloro-4-{1′-[(2-cyanophenyl)sulfonyl]-4,4′-bipiperidin-1-yl}-N,N-dimethylbenzamide] are 57100 nM, 45 nM, 48% and 130%.
On to `CN(C)C(=O)c1ccc(N2CCC(C3CCN(S(=O)(=O)c4ccccc4Cl)CC3)CC2)cc1Cl` [Example A-103, 2-chloro-4-{1′-[(2-chlorophenyl)sulfonyl]-4,4′-bipiperidin-1-yl}-N,N-dimethylbenzamide], for which the results for the EC50 in test [1] and in test [2] were 2190 nM and 16 nM, respectively. Moreover, the Emax in test [1] (setting [3]) is 54%; in test [2] (setting [3]), 122%.
For `CN(C)C(=O)c1ccc(N2CCC(C3CCN(S(=O)(=O)c4c(Cl)cccc4Cl)CC3)CC2)cc1Cl` [Example A-104, 2-chloro-4-{1′-[(2,6-dichlorophenyl)sulfonyl]-4,4′-bipiperidin-1-yl}-N,N-dimethylbenzamide], in that order: 2340 nM, 21 nM, 67% and 129%.
For `CN(C)C(=O)c1ccc(N2CCC(C3CCN(S(=O)(=O)c4c(Cl)cccc4C(F)(F)F)CC3)CC2)cc1Cl` [Example A-105, 2-chloro-4-(1′-{[2-chloro-6-(trifluoromethyl)phenyl]sulfonyl}-4,4′-bipiperidin-1-yl)-N,N-dimethylbenzamide], in that order: 1090 nM, 55 nM, 44% and 118%.
Take `CN(C)C(=O)c1ccc(N2CCC(C3CCN(c4ccccc4Cl)CC3)CC2)cc1Cl` [Example A-107, 2-chloro-4-[1′-(2-chlorophenyl)-4,4′-bipiperidin-1-yl]-N,N-dimethylbenzamide]: the “LXR alpha IP (nM)” value in test [1] is “NO IP”. In addition, the figures for the Emax in test [1] (setting [3]) and in test [2] (setting [3]) were 17% and 62%, respectively. The EC50 in test [2] was 825 nM.
